Experimental data: patent US20050003509A1, “Method for modulating C.albicans” (priority 2003, published 2005)

Assays:
[1] = system: S.cervesiae strain FGY145; assay: growth of transformed shr3Δ6 S.cervesiae strain FGY145 with toxic amino acids; type: cell-based, S.cerevisiae; conditions: 30° C., six days
Method: Standard culture conditions and media for S.cervesiae and C.albicans have been described by Sherman, in Guthrie, ed. Guide to Yeast Genetics And Molecular Biology (Academic Press, 1991), pp. 3-21, incorporated by reference. To elaborate, Ura^− strains of C.albicans were grown in standard media, supplemented with 25 μg/ml of uridine. Tests on S.cerevisiae were carried out in SD medium supplemented with histidine, as well as various toxic amino acid analogs, i.e., L-canaranine (1 μg/ml), L-azetidine-2-carboxylate (500 μg/ml), B-chloro-D, L-alanine (100 μg/ml), p-fluoro-D, L-phenylalanine (400 μg/ml), D, L-ethionine (300 μg/ml), and 2-aminoethyl-L-cysteine (225 μg/ml). Ljungdahl, et al., Cell, 71:463-478 (1992), was followed to produce SPD and SPD containing 30 mM histidine.
Cell suspension of shr3Δ6 S.cervesiae strain FGY145 described by Gilstring, et al., Mol. Cell Biol., 10:3549-3565 (1999), were transformed with either control plasma pRS316, pPL210, which encodes SHR3 and is described by Ljungdahl, et al., supra, or pPM20, which encodes CSH3, and is described supra. The transformants were spotted on the described SD media, and grown in the presence of the toxic amino acids described supra. Suspensions of the cells were also grown on SPD, and SPD containing 30 mM histidine. […]

[2] = system: C.albicans; assay: induction of morphological transition (hyphae) in buffer; type: cell-based; conditions: 10 mM proline or 2.5 mM Glc-Nac in 10 mM MES pH 6.4, 12 hours, 37° C.
Method: To test this, stains were grown in YPD, as described supra, washed, and were resuspended in buffer at an OD600 of 1, or buffer (10 MM MES, pH 6.4) containing either 10 mM proline, or 2.5 mM Glc-Nac. The suspensions were incubated for 12 hours, at 37° C., after which the suspensions were examined microscopically.

[3] = system: C.albicans; assay: growth on YNB medium with lysine as sole nitrogen source; type: cell-based; conditions: 0, 0.1, 1 and 3 mM lysine
Method: Cells were then grown on YNB medium, containing varying concentrations of lysine (0, 0.1, 1 and 3 mM), as sole nitrogen source. A striking gene dosage effect was observed. As expected, none of the strains were able to grow in the absence of lysine, whereas they grew weakly when 0.1 mM lysine was present, showing the C.albicans can metabolize lysine. […] The heterozygous strains have balanced the opposing activities.

With `N[C@@H](Cc1c[nH]cn1)C(=O)O` [histidine] as the molecule, how does the growth sensitivity ([1]; transformants carrying SHR3 (CSH3 transformants indistinguishable)) read?
Its growth sensitivity is “sensitive”.

What about the growth sensitivity ([1]; transformants with control plasmid pRS316) of the same molecule?
Its growth sensitivity is “resistant”.

Which results are given for `CC(=O)N[C@H]1C(O)O[C@H](CO)[C@@H](O)[C@@H]1O` (stereo partly drawn) [Glc-Nac, N-acetyl glucosamine]?
hyphal development ([2]; (+/+) wild type): extensive hyphal development; hyphal development ([2]; (−/−) cells): extensive hyphal development

How did the “growth with increasing lysine concentration” value ([3]; CSH3/CSH3 (+/+) strain) turn out when `NCCCC[C@H](N)C(=O)O` [lysine] was run?
Its value is “decrease at concentrations above 1 mM”.

And the “growth with increasing lysine concentration” value ([3]; heterozygous strains)?
The value was “robust growth at concentrations greater than 1 mM”.

And the “growth with increasing lysine concentration” value ([3]; homozygous null mutant)?
Its value is “improved noticeably”.

How did the hyphal development ([2]; (+/+) wild type) turn out when `O=C(O)[C@@H]1CCCN1` [proline] was run?
The hyphal development was “developed hyphae readily”.

And the hyphal development ([2]; (−/−) cells)?
Its hyphal development is “only a few cells with short germ tubules”.
